Experimental data taken from patent US6348447B1, “Pharmaceutical composition for the treatment of functional dyspepsia and/or irritable bowel syndrome and new use of substances therein” (priority 1998, dated 2002).
Entries after “also recorded” stand apart in the source; their conditions may differ.

Columns and labels:
dyspepsia symptoms = details: dysmotility-like and gastroesophageal reflux-like dyspepsia; cited from earlier work
[1] = tested on: small bowel motility in humans with IBS; assay: Small bowel manometry in fasted IBS patients during intravenous GLP-1 infusion; format: in vivo, human; details: for Contraction frequency / Contraction amplitude / Contraction area / Motility index Ln (Sum (mm Hg*s)/min): 4 h, fasted IBS patients; for Contraction frequency: angle of Treitz; for Contraction frequency / Contraction amplitude / Contraction area / Motility index Ln (Sum (mm Hg*s)/min) / Adjusted MMC: mean ±SEM n=6; for Adjusted MMC: premature MMC at onset subtracted
Experimental: Experiments were carried out in 12 subjects fulfilling the Rome-criteria for IBS. In the fasted subjects a small bowel manometry tube was passed through the nose and located in antroduodenal region under fluoroscopy. Then, small bowel manometry was recorded for 8 hours in the fasted state, and for an additional 40 min after a meal (320 kcal). During the first 4-hour period of the recording saline was administered intravenously. During the second 4-hour period GLP-1 was given intravenously either at a dose of 1.2 pmol/kg/min (72 pmol/kg/h) (n=6) or 2.5 pmol/kg/min (150 pmol/kg/h) (n=6) with the infusion continued over the 40-minute meal period. GLP-1 was administered as an intravenous infusion at a dose of 1.2 or 2.5 pmol/kg/min. The compound was diluted from a stock solution of GLP-1 (Polypeptide, Wolfenbüttel, Hannover, Germany) 100 nmol/ml prepared according to general guidelines with sterilization filtration and endotoxin test, and divided in 10 ml ampoules.
For each patient the solution for infusion was constituted according to body weight. The dose to be given was multiplied by body weight, resulting in an individual dosing, expressed as pmol/min. The calculated total dose (according to extrapolated 250 ml infusion time) was taken from the stock solution and diluted in 250 ml infusion volume of saline (Natriumklorid 9 mg/ml, Pharmacia & Upjohn, Stockholm, Sweden). The infusion was then given at a rate of 1 ml/min with a constant infusion pump (Volumetric infusion pump, model 960, Imed, Oxon, UK) over 4 hours (240 min).
As this premature MMC cycle was considered to be due to an immediate effect of GLP-1 during a build-up of a steady state concentration in the circulation, an adjusted MMC prevalence during GLP-1 infusion was calculated by subtracting the premature MMC at onset from the remaining MMC observed during infusion of GLP-1.
In detail, the following results were obtained from the motility recordings (reference point: angle of Treitz; values are mean ±SEM of n=6 in each group; statistical evaluation by the non-parametric Wilcoxon signed-rank test): […]

[2] = tested on: gastric emptying and small intestinal motility; assay: Gastric emptying and small intestinal motility in the rat; format: in vivo
gastric acid secretion = details: in man; cited from earlier work
gastric emptying = details: in man; cited from earlier work
pancreatic secretion = details: in vivo; cited from earlier work

| Molecule | Symptomatic relief, share of studied patients (dyspepsia symptoms) | Time after onset of infusion to start of an MMC in the duodenum ([1]; GLP-1 1.2 pmol/kg/min i.v.) [min] | Contraction frequency ([1]; GLP-1 1.2 pmol/kg/min i.v.) | Contraction amplitude ([1]; GLP-1 1.2 pmol/kg/min i.v.) [mm Hg] | Contraction area ([1]; GLP-1 1.2 pmol/kg/min i.v.) [mm Hg*s] | Motility index Ln (Sum (mm Hg*s)/min) ([1]; GLP-1 1.2 pmol/kg/min i.v.) | Adjusted MMC ([1]; GLP-1 1.2 pmol/kg/min i.v.) | Time after onset of infusion to start of an MMC in the duodenum ([1]; GLP-1 2.5 pmol/kg/min i.v.) [min] | Contraction frequency ([1]; GLP-1 2.5 pmol/kg/min i.v.) | Contraction amplitude ([1]; GLP-1 2.5 pmol/kg/min i.v.) [mm Hg] | Contraction area ([1]; GLP-1 2.5 pmol/kg/min i.v.) [mm Hg*s] | Motility index Ln (Sum (mm Hg*s)/min) ([1]; GLP-1 2.5 pmol/kg/min i.v.) | Adjusted MMC ([1]; GLP-1 2.5 pmol/kg/min i.v.) | Effect on motor activity in the small bowel (overall result in words) ([1]; IBS patients, fasted state) | Patients in whom a premature MMC was started in the duodenum ([1]; in each group (1.2 and 2.5 pmol/kg/min)) | Action on gastric emptying and small intestinal motility (in words) [2] | Inhibition of gastric acid secretion (gastric acid secretion) [%] | Slowing of gastric emptying (gastric emptying) [%] | Inhibition of pancreatic secretion (pancreatic secretion) |
| --- | --- | --- | --- | --- | --- | --- | --- | --- | --- | --- | --- | --- | --- | --- | --- | --- | --- | --- | --- |
| COc1cc(N)c(Cl)cc1C(=O)NC1CCN(CCCOc2ccc(F)cc2)CC1OC (stereo not shown) [cisapride] | 60-90% |  |  |  |  |  |  |  |  |  |  |  |  |  |  |  |  |  |  |
| glucagon-like peptide-1 [GLP-1] |  | ≤ 14.2 ± 3.8 | 1.7 ± 0.4 #/min | 24.7 ± 1.6 | 33.4 ± 3.2 | 4.7 ± 0.3 | 0.0 ± 0.0 #/4 h | ≤ 12.0 ± 2.7 | 0.9 ± 0.2 #/min | 23.6 ± 2.5 | 30.5 ± 5.3 | 3.8 ± 0.8 | 0.2 ± 0.2 #/4 h | able to reduce the motor activity; also recorded: dose-dependent reduction of motor activity | four out of six | profound inhibitory action | 43 | 50 | about 45% |
